molecular target: Polyunsaturated fatty acid 5-lipoxygenase (Cavia porcellus); experiment: Inhibition of [14C]arachidonic acid conversion to 5-HETE by broken cell 5-LO isolated from guinea pig PMN

| SMILES | IC50 [µM] |
| --- | --- |
| O=c1c2c([nH]n1CCOc1ccc3ccccc3c1)CCCC2 [2-[2-(Naphthalen-2-yloxy)-ethyl]-2,3a,4,5,6,7-hexahydro-indazol-3-one] | 0.31 |
| Cc1cc(=O)n(CCOc2ccc3c(c2)Nc2ccccc2S3)[nH]1 [5-Methyl-2-[2-(10H-phenothiazin-2-yloxy)-ethyl]-2,4-dihydro-pyrazol-3-one] | 0.057 |
| O=c1c2c([nH]n1CCOc1ccc3ccccc3c1)CCC2 [2-[2-(Naphthalen-2-yloxy)-ethyl]-3a,4,5,6-tetrahydro-2H-cyclopentapyrazol-3-one] | 0.48 |

Source: BindingDB's records for doi:10.1016/S0960-894X(00)80655-1 (1992)
